What was measured:
[1] = system: MOLT-4; assay: NCI in vitro DTP human cell line screen, MOLT-4; type: cell-based; conditions: Leukemia, 1.00E−5 Molar
Protocol: (§1) Then, a cell toxicity assay of the cancer lines made by National Cancer Institute will be discussed as follows. The cell toxicity assay is performed by choosing ten compounds (existing certification numbers) from the 59 compounds disclosed in the present invention first.

[2] = system: KM12; assay: NCI in vitro DTP human cell line screen, KM12; type: cell-based; conditions: Colon Cancer, 1.00E−5 Molar
Protocol: as §1

[3] = system: ACHN; assay: NCI in vitro DTP human cell line screen, ACHN; type: cell-based; conditions: Renal Cancer, 1.00E−5 Molar
Protocol: as §1

[4] = system: HT29; assay: NCI in vitro DTP human cell line screen, HT29; type: cell-based; conditions: Colon Cancer, 1.00E−5 Molar
Protocol: as §1

[5] = system: K562; assay: NCI in vitro DTP human cell line screen, K562; type: cell-based; conditions: Leukemia, 1.00E−5 Molar
Protocol: as §1

[6] = system: U251; assay: NCI in vitro DTP human cell line screen, U251; type: cell-based; conditions: CNS Cancer, 1.00E−5 Molar
Protocol: as §1

[7] = system: 60 cancer lines; assay: NCI cell toxicity assay of 60 cancer lines, whole panel summary; type: cell-based, human; conditions: mean over all cell lines; 1.00E−5 Molar
Protocol: as §1

[8] = system: MDA-MB-435; assay: NCI in vitro DTP human cell line screen, MDA-MB-435; type: cell-based; conditions: Melanoma, 1.00E−5 Molar
Protocol: as §1

[9] = system: TK-10; assay: NCI in vitro DTP human cell line screen, TK-10; type: cell-based; conditions: Renal Cancer, 1.00E−5 Molar
Protocol: as §1

[10] = system: MDA-MB-231/ATCC; assay: NCI in vitro DTP human cell line screen, MDA-MB-231/ATCC; type: cell-based; conditions: Breast Cancer, 1.00E−5 Molar
Protocol: as §1

[11] = system: SF-268; assay: NCI in vitro DTP human cell line screen, SF-268; type: cell-based; conditions: CNS Cancer, 1.00E−5 Molar
Protocol: as §1

[12] = system: A control cell lines; assay: MTT assay, A control cell lines (lung cancer cell); type: cell-based
Description: Please refer to Table 1 and FIGS. 4A-4C. According to a MTT assay (Table 1), various cell viabilities of the A control cell lines can be obtained and illustrated in FIG. 4A while the compounds No. 2˜30 are used to treat A control cell lines, wherein A control cell lines are lung cancer cell.

[13] = system: A3 cell lines; assay: MTT assay, A3 cell lines (lung cancer stem cell); type: cell-based
Description: Please to FIG. 4B, various cell viabilities of the A3 cell lines can be obtained through the MTT assay and illustrated in FIG. 4B while the compounds No. 1˜30 are used to treat A3 cell lines, wherein A3 cell lines are lung cancer stem cell.

[14] = system: OVCAR-5; assay: NCI in vitro DTP human cell line screen, OVCAR-5; type: cell-based; conditions: Ovarian Cancer, 1.00E−5 Molar
Protocol: as §1

[15] = system: OVCAR-3; assay: NCI in vitro DTP human cell line screen, OVCAR-3; type: cell-based; conditions: Ovarian Cancer, 1.00E−5 Molar
Protocol: as §1

[16] = system: NCI-H322M; assay: NCI in vitro DTP human cell line screen, NCI-H322M; type: cell-based; conditions: Non-Small Cell Lung Cancer, 1.00E−5 Molar
Protocol: as §1

[17] = system: M14; assay: NCI in vitro DTP human cell line screen, M14; type: cell-based; conditions: Melanoma, 1.00E−5 Molar
Protocol: as §1

[18] = system: NCI-H226; assay: NCI in vitro DTP human cell line screen, NCI-H226; type: cell-based; conditions: Non-Small Cell Lung Cancer, 1.00E−5 Molar
Protocol: as §1

[19] = system: SK-MEL-2; assay: NCI in vitro DTP human cell line screen, SK-MEL-2; type: cell-based; conditions: Melanoma, 1.00E−5 Molar
Protocol: as §1

[20] = system: OVCAR-4; assay: NCI in vitro DTP human cell line screen, OVCAR-4; type: cell-based; conditions: Ovarian Cancer, 1.00E−5 Molar
Protocol: as §1

[21] = system: NCI-H522; assay: NCI in vitro DTP human cell line screen, NCI-H522; type: cell-based; conditions: Non-Small Cell Lung Cancer, 1.00E−5 Molar
Protocol: as §1

[22] = system: CCRF-CEM; assay: NCI in vitro DTP human cell line screen, CCRF-CEM; type: cell-based; conditions: Leukemia, 1.00E−5 Molar
Protocol: as §1

[23] = system: IGROV1; assay: NCI in vitro DTP human cell line screen, IGROV1; type: cell-based; conditions: Ovarian Cancer, 1.00E−5 Molar
Protocol: as §1

[24] = system: MALME-3M; assay: NCI in vitro DTP human cell line screen, MALME-3M; type: cell-based; conditions: Melanoma, 1.00E−5 Molar
Protocol: as §1

[25] = system: NCI-H460; assay: NCI in vitro DTP human cell line screen, NCI-H460; type: cell-based; conditions: Non-Small Cell Lung Cancer, 1.00E−5 Molar
Protocol: as §1

[26] = system: BT-549; assay: NCI in vitro DTP human cell line screen, BT-549; type: cell-based; conditions: Breast Cancer, 1.00E−5 Molar
Protocol: as §1

[27] = MTT assay, HEL299 fibroblast; type: cell-based; conditions: human
Description: Please refer to FIG. 4C, various cell viabilities of the HEL299 cell lines can be obtained through the MTT assay while the compounds No. 1˜30 are used to treat HEL299 cell lines, wherein HEL299 cell lines are fibroblast.

[28] = system: HS 578-T; assay: NCI in vitro DTP human cell line screen, HS 578-T; type: cell-based; conditions: Breast Cancer, 1.00E−5 Molar
Protocol: as §1

[29] = system: SNB-75; assay: NCI in vitro DTP human cell line screen, SNB-75; type: cell-based; conditions: CNS Cancer, 1.00E−5 Molar
Protocol: as §1

[30] = system: OVCAR-8; assay: NCI in vitro DTP human cell line screen, OVCAR-8; type: cell-based; conditions: Ovarian Cancer, 1.00E−5 Molar
Protocol: as §1

[31] = system: SK-MEL-28; assay: NCI in vitro DTP human cell line screen, SK-MEL-28; type: cell-based; conditions: Melanoma, 1.00E−5 Molar
Protocol: as §1

[32] = system: UO-31; assay: NCI in vitro DTP human cell line screen, UO-31; type: cell-based; conditions: Renal Cancer, 1.00E−5 Molar
Protocol: as §1

[33] = system: HCT-15; assay: NCI in vitro DTP human cell line screen, HCT-15; type: cell-based; conditions: Colon Cancer, 1.00E−5 Molar
Protocol: as §1

[34] = system: SR; assay: NCI in vitro DTP human cell line screen, SR; type: cell-based; conditions: Leukemia, 1.00E−5 Molar
Protocol: as §1

[35] = system: PC-3; assay: NCI in vitro DTP human cell line screen, PC-3; type: cell-based; conditions: Prostate Cancer, 1.00E−5 Molar
Protocol: as §1

[36] = system: SK-OV-3; assay: NCI in vitro DTP human cell line screen, SK-OV-3; type: cell-based; conditions: Ovarian Cancer, 1.00E−5 Molar
Protocol: as §1

[37] = system: MCF7; assay: NCI in vitro DTP human cell line screen, MCF7; type: cell-based; conditions: Breast Cancer, 1.00E−5 Molar
Protocol: as §1

[38] = system: COLO 205; assay: NCI in vitro DTP human cell line screen, COLO 205; type: cell-based; conditions: Colon Cancer, 1.00E−5 Molar
Protocol: as §1

[39] = system: SW-620; assay: NCI in vitro DTP human cell line screen, SW-620; type: cell-based; conditions: Colon Cancer, 1.00E−5 Molar
Protocol: as §1

[40] = system: UACC-257; assay: NCI in vitro DTP human cell line screen, UACC-257; type: cell-based; conditions: Melanoma, 1.00E−5 Molar
Protocol: as §1

[41] = system: HOP-92; assay: NCI in vitro DTP human cell line screen, HOP-92; type: cell-based; conditions: Non-Small Cell Lung Cancer, 1.00E−5 Molar
Protocol: as §1

[42] = system: NCI/ADR-RES; assay: NCI in vitro DTP human cell line screen, NCI/ADR-RES; type: cell-based; conditions: Ovarian Cancer, 1.00E−5 Molar
Protocol: as §1

[43] = system: RPMI-8226; assay: NCI in vitro DTP human cell line screen, RPMI-8226; type: cell-based; conditions: Leukemia, 1.00E−5 Molar
Protocol: as §1

[44] = system: T-47D; assay: NCI in vitro DTP human cell line screen, T-47D; type: cell-based; conditions: Breast Cancer, 1.00E−5 Molar
Protocol: as §1

[45] = system: HL-60(TB); assay: NCI in vitro DTP human cell line screen, HL-60(TB); type: cell-based; conditions: Leukemia, 1.00E−5 Molar
Protocol: as §1

[46] = system: 786-0; assay: NCI in vitro DTP human cell line screen, 786-0; type: cell-based; conditions: Renal Cancer, 1.00E−5 Molar
Protocol: as §1

[47] = system: DU145; assay: NCI in vitro DTP human cell line screen, DU145; type: cell-based; conditions: Prostate Cancer, 1.00E−5 Molar
Protocol: as §1

[48] = system: SF-295; assay: NCI in vitro DTP human cell line screen, SF-295; type: cell-based; conditions: CNS Cancer, 1.00E−5 Molar
Protocol: as §1

[49] = system: HCC-2998; assay: NCI in vitro DTP human cell line screen, HCC-2998; type: cell-based; conditions: Colon Cancer, 1.00E−5 Molar
Protocol: as §1

[50] = system: SK-MEL-5; assay: NCI in vitro DTP human cell line screen, SK-MEL-5; type: cell-based; conditions: Melanoma, 1.00E−5 Molar
Protocol: as §1

[51] = system: EKVX; assay: NCI in vitro DTP human cell line screen, EKVX; type: cell-based; conditions: Non-Small Cell Lung Cancer, 1.00E−5 Molar
Protocol: as §1

[52] = system: CAKI-1; assay: NCI in vitro DTP human cell line screen, CAKI-1; type: cell-based; conditions: Renal Cancer, 1.00E−5 Molar
Protocol: as §1

[53] = system: SF-539; assay: NCI in vitro DTP human cell line screen, SF-539; type: cell-based; conditions: CNS Cancer, 1.00E−5 Molar
Protocol: as §1

[54] = system: NCI-H23; assay: NCI in vitro DTP human cell line screen, NCI-H23; type: cell-based; conditions: Non-Small Cell Lung Cancer, 1.00E−5 Molar
Protocol: as §1

[55] = system: MDA-MB-468; assay: NCI in vitro DTP human cell line screen, MDA-MB-468; type: cell-based; conditions: Breast Cancer, 1.00E−5 Molar
Protocol: as §1

[56] = system: HCT-116; assay: NCI in vitro DTP human cell line screen, HCT-116; type: cell-based; conditions: Colon Cancer, 1.00E−5 Molar
Protocol: as §1

[57] = system: LOX IMVI; assay: NCI in vitro DTP human cell line screen, LOX IMVI; type: cell-based; conditions: Melanoma, 1.00E−5 Molar
Protocol: as §1

Cc1cccc(C)c1Sc1ccc2c(=O)c3ccccc3sc2c1Cl [No. 12, 4-Chloro-3-(2,6-dimethylphenylthio)-9H-thioxanthen-9-one]
Growth Percent [1]: 104.33%
Growth Percent [2]: 113.08%
Growth Percent [3]: 103.68%
Growth Percent [4]: 103.86%
Growth Percent [5]: 97.86%
Growth Percent [6]: 95.70%
Growth Percent, Mean [7]: 102.52%
Growth Percent [8]: 107.09%
Growth Percent [9]: 99.22%
Growth Percent [10]: 108.12%
Growth Percent [11]: 98.33%
cell viabilities of A control cell lines (MTT assay) [12]: 103 ± 5.86%
cell viabilities of A3 cell lines (MTT assay) [13]: 102 ± 9.52%
Growth Percent [14]: 96.86%
Growth Percent [15]: 113.05%
Growth Percent [16]: 113.78%
Growth Percent [17]: 105.63%
Growth Percent [18]: 109.77%
Growth Percent [19]: 108.94%
Growth Percent [20]: 107.51%
Growth Percent [21]: 100.28%
Growth Percent [22]: 88.07%
Growth Percent [23]: 98.49%
Growth Percent [24]: 100.81%
Growth Percent [25]: 110.85%
Growth Percent [26]: 105.28%
viability [27]: 101 ± 9.52%
Growth Percent [28]: 107.64%
Growth Percent [29]: 90.00%
Growth Percent [30]: 96.86%
Growth Percent [31]: 110.00%
Growth Percent [32]: 87.03%
Growth Percent [33]: 99.05%
Growth Percent [34]: 95.93%
Growth Percent [35]: 98.56%
Growth Percent [36]: 111.32%
Growth Percent [37]: 94.01%
Growth Percent [38]: 110.46%
Growth Percent [39]: 105.40%
Growth Percent [40]: 92.09%
Growth Percent [41]: 88.79%
Growth Percent [42]: 105.14%
Growth Percent [43]: 101.60%
Growth Percent [44]: 97.56%
Growth Percent [45]: 109.07%
Growth Percent [46]: 108.98%
Growth Percent [47]: 109.56%
Growth Percent [48]: 98.15%
Growth Percent [49]: 103.54%
Growth Percent [50]: 104.77%
Growth Percent [51]: 103.89%
Growth Percent [52]: 89.35%
Growth Percent [53]: 106.48%
Growth Percent [54]: 93.96%
Growth Percent [55]: 113.20%
Growth Percent [56]: 105.21%
Growth Percent [57]: 105.37%

From US8410161B2, “Thioxanthone ring system derivatives” (National Defense Medical Center, priority 2010, dated 2013)
